Laboratory results: patent US20020026053A1, “Novel 3-(substituted) -2- indolinones compounds and use thereof as inhibitors of protein kinase activity” (priority 1997, published 2002)
Where two headings read alike, the source gives them in different places.

Molecular target: T1, EGFR (Homo sapiens, UniProt P00533)
T1 construct: endogenous in cells; host or cells: A431 cells (lysate, captured with SUMO1 anti-EGFR antibody)
Assay: Biochemical EGFR Assay
Parameters: concentration or dose not given beside the values
Method in brief: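 Readout is ABTS absorbance at 410 nm after anti-phosphotyrosine and HRP-antibody detection of EGFR autophosphorylation. The kinase was immunocaptured from A431 lysate, exposed 30 min to test compound diluted 1:10 in TBS, then phosphorylated for 5 min with ATP/MnCl2 before an EDTA stop.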

T1 sequence (P00533 25-1210): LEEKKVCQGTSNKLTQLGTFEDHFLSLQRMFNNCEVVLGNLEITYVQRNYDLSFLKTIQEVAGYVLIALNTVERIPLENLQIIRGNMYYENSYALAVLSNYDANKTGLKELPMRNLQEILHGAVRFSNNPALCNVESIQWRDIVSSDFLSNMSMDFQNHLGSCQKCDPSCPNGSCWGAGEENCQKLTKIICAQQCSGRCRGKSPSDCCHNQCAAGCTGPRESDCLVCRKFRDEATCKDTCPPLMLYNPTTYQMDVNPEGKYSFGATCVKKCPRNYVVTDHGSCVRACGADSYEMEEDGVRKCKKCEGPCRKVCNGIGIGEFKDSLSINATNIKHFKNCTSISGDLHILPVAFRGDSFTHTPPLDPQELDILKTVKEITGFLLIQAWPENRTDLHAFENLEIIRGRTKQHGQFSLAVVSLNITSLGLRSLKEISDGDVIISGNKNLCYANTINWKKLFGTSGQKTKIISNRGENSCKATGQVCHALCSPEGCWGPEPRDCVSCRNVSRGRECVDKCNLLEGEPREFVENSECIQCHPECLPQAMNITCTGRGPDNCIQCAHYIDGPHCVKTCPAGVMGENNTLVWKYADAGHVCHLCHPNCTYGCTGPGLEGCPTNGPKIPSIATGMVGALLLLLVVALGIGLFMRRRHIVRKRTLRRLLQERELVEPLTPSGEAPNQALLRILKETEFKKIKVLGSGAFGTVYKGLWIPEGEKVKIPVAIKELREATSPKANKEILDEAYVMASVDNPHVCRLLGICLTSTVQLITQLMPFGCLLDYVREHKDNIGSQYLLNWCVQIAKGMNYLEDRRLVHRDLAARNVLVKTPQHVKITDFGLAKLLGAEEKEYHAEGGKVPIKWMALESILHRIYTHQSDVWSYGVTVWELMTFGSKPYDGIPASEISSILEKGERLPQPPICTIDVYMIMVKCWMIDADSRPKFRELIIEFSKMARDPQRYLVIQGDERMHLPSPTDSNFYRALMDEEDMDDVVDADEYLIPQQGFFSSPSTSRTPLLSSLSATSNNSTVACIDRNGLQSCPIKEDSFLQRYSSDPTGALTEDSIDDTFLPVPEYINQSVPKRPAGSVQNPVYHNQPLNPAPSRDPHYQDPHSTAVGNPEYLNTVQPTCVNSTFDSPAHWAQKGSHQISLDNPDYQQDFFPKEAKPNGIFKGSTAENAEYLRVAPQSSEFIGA

Structure (SMILES) | Biochem EGFR % Inhibition (P.167) [%] | Biochem EGFR % Inhibition (P.167) (protocol P.167) [%]
CCOc1ccccc1C=C1C(=O)Nc2c(Br)cc(Br)c(C)c21 [10717/H02] | 3.5 | 
Cc1c(Br)cc(Br)c2c1C(=Cc1cccs1)C(=O)N2 [10717/H03] | 25.7 | 
Cc1c(Br)cc(Br)c2c1C(=Cc1cccn1C)C(=O)N2 [10717/H04] | 6.8 | 
COc1ccc(C=C2C(=O)Nc3c(Br)cc(Br)c(C)c32)cc1OC [10720/H04] | −49.6 | 
Cc1c(Br)cc(Br)c2c1C(=Cc1ccccc1O)C(=O)N2 [10720/H05] | −29.0 | 
Cc1c(Br)cc(Br)c2c1C(=Cc1ccccc1)C(=O)N2 [10720/H06] | −52.4 | 
CSc1ccc(C=C2C(=O)Nc3c(Br)cc(Br)c(C)c32)s1 [10720/H07] | −49.8 | 
Cc1cc(O)cc(O)c1C=C1C(=O)Nc2c(Br)cc(Br)c(C)c21 [10720/H08] | −55.8 | 
CCOc1cc(C=C2C(=O)Nc3c(Br)cc(Br)c(C)c32)ccc1O [10720/H09] | −66.8 | 
COc1ccc(O)c(C=C2C(=O)Nc3c(Br)cc(Br)c(C)c32)c1 [10720/H10] | −62.8 | 
Cc1c(Br)cc(Br)c2c1C(=Cc1ncc[nH]1)C(=O)N2 [10720/H11] | −19.3 | 
Cc1c(Br)cc(Br)c2c1C(=Cc1nc3ccccc3n1C)C(=O)N2 [10721/H02] | 20.1 | 
Cc1c(Br)cc(Br)c2c1C(=Cc1nn(C)cc1Cl)C(=O)N2 [10721/H03] | 29.2 | 
Cc1cc(C=C2C(=O)Nc3c(Br)cc(Br)c(C)c32)sc1C [10721/H04] | −8.5 | 
Cc1c(Br)cc(Br)c2c1C(=Cc1cc3c([nH]1)CCCC3)C(=O)N2 [10721/H05] | −12.4 | 
Cc1c(Br)cc(Br)c2c1C(=Cc1cc([N+](=O)[O-])cc(CCl)c1O)C(=O)N2 [10721/H06] | 43.3 | 
Cc1c(Br)cc(Br)c2c1C(=Cc1ccc(Cl)s1)C(=O)N2 [10721/H07] | −20.5 | 
Cc1cc(C)c(C=C2C(=O)Nc3c(Br)cc(Br)c(C)c32)[nH]1 [10721/H08] | −6.8 | 
Cc1c(Br)cc(Br)c2c1C(=Cc1ccc(O)c(C(C)(C)C)c1)C(=O)N2 [10721/H09] | −10.4 | 
Cc1c(Br)cc(Br)c2c1C(=Cc1cc(Br)c(O)c(C(C)(C)C)c1)C(=O)N2 [10721/H10] | −3.9 | 
Cc1c(Br)cc(Br)c2c1C(=Cc1cc(C(C)(C)C)c(O)c(C(C)(C)C)c1)C(=O)N2 [10721/H11] | −21.3 | 
Cc1c(Br)cc(Br)c2c1C(=Cc1cc([N+](=O)[O-])c(O)c(C(C)(C)C)c1)C(=O)N2 [10722/H02] | 24.8 | 
Cc1c(Br)cc(Br)c2c1C(=Cc1c(O)cc(O)cc1O)C(=O)N2 [10722/H03] | 27.8 | 
Cc1c(Br)cc(Br)c2c1C(=Cc1ccc([N+](=O)[O-])s1)C(=O)N2 [10722/H04] | 8.6 | 

Structure (SMILES) | Biochem EGFR % Inhibition (P.167) [%] | Biochem EGFR % Inhibition (P.167) (protocol P.167) [%]
Cc1c(Br)cc(Br)c2c1C(=Cc1ccc(C(=O)O)cc1)C(=O)N2 [10722/H05] | 1.1 | 
Cc1c(Br)cc(Br)c2c1C(=Cc1ccc(F)cc1F)C(=O)N2 [10722/H06] | −2.0 | 
Cc1cc(C=C2C(=O)Nc3c(Br)cc(Br)c(C)c32)cc(C)c1O [10722/H07] | −24.8 | 
Cc1c(Br)cc(Br)c2c1C(=Cc1cc(Cl)c(O)c(C(C)(C)C)c1)C(=O)N2 [10722/H08] | −5.7 | 
Cc1c(Br)cc(Br)c2c1C(=Cc1csc([N+](=O)[O-])c1)C(=O)N2 [10722/H09] | −7.4 | 
CCCCN(CCCC)c1ccc(C=C2C(=O)Nc3c(Br)cc(Br)c(C)c32)cc1 [10722/H10] | −11.2 | 
Cc1c(Br)cc(Br)c2c1C(=Cc1ccc(C(F)(F)F)cc1)C(=O)N2 [10722/H11] | −16.3 | 
Cc1c(Br)cc(Br)c2c1C(=Cc1ccc(O)c(O)c1O)C(=O)N2 [10723/H02] | 72.8 | 
COc1cccc(C=C2C(=O)Nc3c(Br)cc(Br)c(C)c32)c1O [10723/H03] | 6.3 | 
Cc1c(Br)cc(Br)c2c1C(=Cc1cc(O)c(O)c(Br)c1)C(=O)N2 [10723/H04] | 7.1 | 
CC(=O)Oc1ccc(C=C2C(=O)Nc3c(Br)cc(Br)c(C)c32)cc1OC(C)=O [10723/H05] | −17.3 | 
Cc1cc(C=C2C(=O)Nc3c(Br)cc(Br)c(C)c32)ccc1O [10723/H06] | −11.8 | 
Cc1c(Br)cc(Br)c2c1C(=Cc1ccccc1Br)C(=O)N2 [10723/H07] | −11.3 | 
Cc1c(Br)cc(Br)c2c1C(=Cc1ccc(O)cc1O)C(=O)N2 [10723/H08] | 69.9 | 
COc1ccc(C=C2C(=O)Nc3c(Br)cc(Br)c(C)c32)c(O)c1 [10723/H09] | −2.6 | 
Cc1c(Br)cc(Br)c2c1C(=Cc1cccc(Br)c1)C(=O)N2 [10723/H10] | −38.1 | 
Cc1c(Br)cc(Br)c2c1C(=Cc1cc(C(C)(C)C)cc(C(C)(C)C)c1O)C(=O)N2 [10723/H11] | −20.7 | 
Cc1c(Br)cc(Br)c2c1C(=Cc1ccc(N(C)C)c3ccccc13)C(=O)N2 [10724/H02] | 17.6 | 
Cc1c(Br)cc(Br)c2c1C(=Cc1ccc(O)c([N+](=O)[O-])c1)C(=O)N2 [10724/H03] | 0.3 | 
Cc1c(Br)cc(Br)c2c1C(=Cc1ccc([N+](=O)[O-])c(O)c1)C(=O)N2 [10724/H04] | 14.0 | 
Cc1c(Br)cc(Br)c2c1C(=Cc1cc3c4c(c1O)CCCN4CCC3)C(=O)N2 [10724/H05] | −1.3 | 
Cc1c(Br)cc(Br)c2c1C(=Cc1cc(C(C)C)c(O)c(C(C)C)c1)C(=O)N2 [10724/H06] | −8.2 | 
Cc1c(Br)cc(Br)c2c1C(=Cc1cc3ccccc3o1)C(=O)N2 [10724/H07] | −19.3 | 
COc1cc(O)c(C=C2C(=O)Nc3c(Br)cc(Br)c(C)c32)c(OC)c1 [10724/H08] | −19.7 | 

Structure (SMILES) | Biochem EGFR % Inhibition (P.167) [%] | Biochem EGFR % Inhibition (P.167) (protocol P.167) [%]
Cc1c(Br)cc(Br)c2c1C(=Cc1cccn1-c1ccc(Cl)cc1)C(=O)N2 [10724/H09] | −33.5 | 
CCc1ccc(C=C2C(=O)Nc3c(Br)cc(Br)c(C)c32)o1 [10724/H10] | −25.5 | 
Cc1c(Br)cc(Br)c2c1C(=Cc1sc3scc(C)c3c1C)C(=O)N2 [10724/H11] | −12.8 | 
Cc1c(Br)cc(Br)c2c1C(=Cc1sccc1Br)C(=O)N2 [10725/H02] | −23.5 | 
COc1ccc(Br)c(C=C2C(=O)Nc3c(Br)cc(Br)c(C)c32)c1O [10725/H03] | −16.5 | 
Cc1ccc(C=C2C(=O)Nc3c(Br)cc(Br)c(C)c32)o1 [10725/H04] | 17.2 | 
Cc1cc(C=C2C(=O)Nc3c(Br)cc(Br)c(C)c32)[nH]n1 [10725/H05] | −30.2 | 
COc1cc(C)cc(O)c1C=C1C(=O)Nc2c(Br)cc(Br)c(C)c21 [10725/H06] | 0.3 | 
Cc1c(Br)cc(Br)c2c1C(=Cc1ccc(N3CCN(C=O)CC3)cc1)C(=O)N2 [10725/H07] | −13.3 | 
Cc1c(Br)cc(Br)c2c1C(=Cc1ccc(N3CCOCC3)cc1)C(=O)N2 [10725/H08] | −3.7 | 
COC(=O)Cc1c(Cl)[nH]c(C=C2C(=O)Nc3c(Br)cc(Br)c(C)c32)c1C(=O)OC [10725/H09] | −28.4 | 
Cc1c(Br)cc(Br)c2c1C(=Cc1c(Br)cnn1-c1ccc(Cl)cc1)C(=O)N2 [10725/H10] | 9.1 | 
Cc1c(Br)cc(Br)c2c1C(=Cc1c[nH]cn1)C(=O)N2 [10725/H11] | 0.5 | 
Cc1c(Br)cc(Br)c2c1C(=Cc1ccccc1[N+](=O)[O-])C(=O)N2 [10726/H02] | −11.2 | 
CCOC(=O)c1[nH]c(C=C2C(=O)Nc3c(Br)cc(Br)c(C)c32)c(C(=O)OC)c1C [10726/H03] | 14.0 | 
Cc1cc(C=C2C(=O)Nc3c(Br)cc(Br)c(C)c32)cc(C(C)(C)C)c1O [10726/H04] | 75.5 | 
COc1cccc(C=C2C(=O)Nc3ccc(S(=O)(=O)N4CCOCC4)cc32)c1 [10736/F10] | −0.7 | 
O=C1Nc2ccc(S(=O)(=O)N3CCOCC3)cc2C1=Cc1ccccc1Cl [10736/F11] | −23.4 | 
O=C1Nc2ccc(CCCl)cc2C1=Cc1ccc(Cl)cc1 [10736/G02] | −4.5 | 
O=C1Nc2ccc(CCCl)cc2C1=Cc1ccccc1C(F)(F)F [10736/G03] | 23.0 | 
Cc1cccc(C=C2C(=O)Nc3ccc(CCCl)cc32)c1 [10736/G04] | −35.0 | 
O=C1Nc2ccc(CCCl)cc2C1=Cc1cccc(F)c1 [10736/G07] |  | −74.8
